We go through 73 compounds from ChEMBL document CHEMBL3507680, “University of Dundee, Gates Library screen for HepG2 cell viability”.

This series can be described thus: Human HepG2 cell viability assay in 384 well format. In kind it is toxicity, cell-based. The conditions noted are these: HepG2 cells, read-out: Inhibition. Also noted: dose 125 nL, time 70.5 hour; concentration not given beside the values.

As to `Cc1cc(C)n(CC2CN(Cc3noc(C)n3)CCO2)n1` (stereo not drawn), the cytotoxicity at 70.5 h was determined as 10.1%. Consider `c1ccc(CCCN2CCCC2Cn2cncn2)cc1` (stereo not drawn), for which the cytotoxicity at 70.5 h was -3.86%. In the case of `CCOc1ccc(C(=O)N2CCCC2c2c(C)nn(C)c2OC)cn1` (stereo not drawn), the cytotoxicity at 70.5 h was -4.47%. The value for `CS(=O)(=O)N1CCC(NC(=O)COc2ccc(Br)cc2Cl)CC1` was 30.2%; that for `CC(C)C(C)NC(=O)Nc1ccc(F)c(C(N)=O)c1` (stereo not drawn) was -3.91%. For `CCOc1ncccc1C(=O)NC1CCCN(c2ncccn2)C1` (stereo not drawn), the cytotoxicity at 70.5 h is 1.87%.

Turning to `CC(CNC(=O)c1ccc(=O)[nH]n1)N1CCc2ccccc21` (stereo not drawn), the cytotoxicity at 70.5 h came out at 2.77%. Turning to `CS(=O)(=O)N1CCC(NC(=O)COc2ccc(Cl)cc2)CC1`, the cytotoxicity at 70.5 h is -4.42%. Consider `COc1cccc(CNCc2ccc(NC(=O)NC(C)C)cc2)c1`, for which the cytotoxicity at 70.5 h amounted to 7.1%. Consider `Cc1cccc(CNCc2ccc(NC(=O)NC(C)C)cc2)c1`, for which the cytotoxicity at 70.5 h was found to be 2.57%. As for `CCOc1cccc(CNCc2ccc(NC(=O)NC(C)C)cc2)c1`, the cytotoxicity at 70.5 h amounted to 4.86%. As for `COC(=O)c1cccn1C1CCN(Cc2nc3ccccc3o2)CC1`, the cytotoxicity at 70.5 h was -3.04%. On to `CN(Cc1ccc(F)cc1)C(=O)CN1CCOC(Cn2cccn2)C1` (stereo not drawn), for which the cytotoxicity at 70.5 h was 0.224%. For the compound `CN(Cc1ccco1)C(=O)CN1CCOC(Cn2cccn2)C1` (stereo not drawn), the cytotoxicity at 70.5 h is -1.5%. Turning to `CC(C)CCOCCNC(=O)Nc1ccc(F)c(C(N)=O)c1`, the cytotoxicity at 70.5 h is -1.3%. As for `O=S(=O)(CCNC1CCc2ncnn2C1)c1ccc(Cl)cc1` (stereo not drawn), the cytotoxicity at 70.5 h was -1.07%. The value for `O=S(=O)(CCCN1CCCC(Cn2cncn2)C1)c1ccccc1` (stereo not drawn) was 4.82%; that for `O=C(c1cc(Cl)ccc1F)N1CCCC1Cn1cccn1` (stereo not drawn) was 22.7%; that for `Cc1cnn(CC2CCCN2C(=O)c2ccc(F)c(F)c2)c1` (stereo not drawn) was -0.479%. The value for `COC(=O)c1cccn1C1CCN(Cc2cnc3ccccn23)CC1` was 10.2%; that for `COc1cccc(OCC(=O)NS(=O)(=O)c2ccc(Br)s2)c1` was 0.256%. For the compound `CCN(CC)C(C(=O)NCc1ccc(N2CCCC2)nc1)C(C)C` (stereo not drawn), the cytotoxicity at 70.5 h worked out at 2.85%. The value for `Cc1ccc(NC(=O)N(C)Cc2cnn(C)c2)cc1OCC(F)F` was 26.4%; that for `Cc1csc(C2CCCN(C(=O)c3cnc4n[nH]c(C)c4c3)C2)n1` (stereo not drawn) was -10.8%; that for `Cn1cc(C2CCCN2CCCc2nc(-c3cccs3)no2)cn1` (stereo not drawn) was -11.4%. For the compound `Cc1cc(C)n(CC2CCCN2CC(=O)N(C)C)n1` (stereo not drawn), the cytotoxicity at 70.5 h is -11.4%. With `c1cc(CN2CCCC(c3noc(C4CC4)n3)C2)no1` (stereo not drawn), the cytotoxicity at 70.5 h was 3.46%. Regarding `O=C(CCN1CCCC1c1cccs1)N1CCc2sccc2C1` (stereo not drawn), the cytotoxicity at 70.5 h is -13.7%. Consider `O=C(COc1cccc(Br)c1)N1CCOCC1c1ncon1` (stereo not drawn), for which the cytotoxicity at 70.5 h is -3.27%. `Cc1cnn(CCC(=O)N2CCCC(c3nc(C)no3)C2)c1` (stereo not drawn): the cytotoxicity at 70.5 h was found to be 37.7%.

With `CC(C)c1nc2n(n1)CC(NCc1nnnn1C1CC1)CC2` (stereo not drawn), the cytotoxicity at 70.5 h is -5.21%. As for `N#Cc1ccccc1CN1CCCCC1Cn1cncn1` (stereo not drawn), the cytotoxicity at 70.5 h is -20%. Regarding `Cc1nn(C)c(C)c1C1CCCN1CCCc1nc2ccccc2o1` (stereo not drawn), the cytotoxicity at 70.5 h was -8.55%. Take `COc1ccc(CCC(=O)Nc2cccnc2N2CCCC2)cc1Br`: the cytotoxicity at 70.5 h is -5.48%. For `Cc1cc(C(=O)NCc2cccnc2OC(C)C)no1`, the cytotoxicity at 70.5 h was -31.2%.

For `CC(NC(=O)CCOc1ccccc1Cl)c1nnc2n1CCC2` (stereo not drawn), the cytotoxicity at 70.5 h is -16.2%.

In the case of `COc1cccc(COCC(=O)N2CCCC(c3nncn3C)C2)c1` (stereo not drawn), the cytotoxicity at 70.5 h is -12.7%.

For the compound `O=C(NCc1ccc(-n2cncn2)nc1)c1ccc2c(c1)CCO2`, the cytotoxicity at 70.5 h is -10.1%. As to `CC(NC(=O)Nc1cccnc1N1CCCC1)c1nncn1C` (stereo not drawn), the cytotoxicity at 70.5 h was -13.7%. With `O=C(NCc1ccc(-n2cncn2)nc1)c1ccoc1`, the cytotoxicity at 70.5 h amounted to 22.2%. In the case of `CC(NC(=O)COc1ccc(F)cc1)c1nnc2n1CCCCC2` (stereo not drawn), the cytotoxicity at 70.5 h was -4%.

For `CN1CCC(C(=O)NCc2nncn2-c2ccccc2)CC1=O` (stereo not drawn), the cytotoxicity at 70.5 h was -16.9%. `Cc1nn(C)c(C)c1C1CCCN1CC(=O)NC(C1CC1)C1CC1` (stereo not drawn): the cytotoxicity at 70.5 h is -2.06%. For `CCCn1[nH]cc/c1=N\C(=O)CN1CCCC1c1c(C)nn(C)c1C` (stereo not drawn), the cytotoxicity at 70.5 h was determined as 16.9%.

For `Cc1nc(C)n(C2CCCN(C(=O)c3cnc[nH]3)C2)n1` (stereo not drawn), the cytotoxicity at 70.5 h is -7.11%. As to `CC(C)c1nc(C2CCCN2CCCc2nc3ccccc3o2)no1` (stereo not drawn), the cytotoxicity at 70.5 h is -12.9%. Regarding `Cc1cccc(CCC(=O)N2CCCC(c3cc(C(N)=O)[nH]n3)C2)c1` (stereo not drawn), the cytotoxicity at 70.5 h was found to be 19%. Regarding `Cc1cnn(CCNCc2nnc(C3CC3)o2)c1`, the cytotoxicity at 70.5 h was found to be 11.6%. On to `O=C(NCC(=O)N1CCc2ccccc2C1)c1ccoc1`, for which the cytotoxicity at 70.5 h is 10.2%.

Consider `CN(C)c1ccc(NC(=O)NCc2ccccn2)cn1`, for which the cytotoxicity at 70.5 h is -13.6%. For the compound `Cc1ccc(F)cc1S(=O)(=O)NCc1cccnc1N(C)C`, the cytotoxicity at 70.5 h was -10.3%. For the compound `COc1cc(C)c(S(=O)(=O)NCc2cccnc2N(C)C)c(C)c1`, the cytotoxicity at 70.5 h was -5.54%.

For the compound `O=C(NCCn1ccnc1)N1CCN(c2nccs2)CC1`, the cytotoxicity at 70.5 h came out at 16.8%. The value for `CCC1CN(C(=O)NCCOc2ccc3c(c2)OCO3)CCO1` (stereo not drawn) was -19.8%; that for `Cn1ccc(C(=O)NCc2cccc(N3CCCCC3=O)c2)cc1=O` was -4.99%. On to `COCCN1CCCN(C(=O)NC(C)Cn2cccn2)CC1` (stereo not drawn), for which the cytotoxicity at 70.5 h is -14.2%.

As for `Cc1noc(C(C)C)c1C(=O)NCCCN1CCCC1`, the cytotoxicity at 70.5 h is -6.55%. In the case of `O=C(c1ccc(F)cc1Cl)N1CCC(Nc2cccnn2)CC1`, the cytotoxicity at 70.5 h was -7.6%. On to `Cn1cc(CC(=O)N2CCC(Nc3cccnn3)CC2)c2ccccc21`, for which the cytotoxicity at 70.5 h was -4.98%. With `CCn1nc2c(cc1=O)CN(CC(=O)Nc1nc(C)c(C)s1)CC2`, the cytotoxicity at 70.5 h was -13.9%.

With `CCCn1nc2c(cc1=O)CN(CC(=O)Nc1ccncc1)CC2`, the cytotoxicity at 70.5 h was -17.2%. For `CCc1n[nH]c(C2CN(C(=O)c3nc(C)n4ccccc34)CCO2)n1` (stereo not drawn), the cytotoxicity at 70.5 h is -20.1%. With `CC(NC(=O)CCn1cncn1)c1nnc2n1CCCCC2` (stereo not drawn), the cytotoxicity at 70.5 h was -13.5%. `CCN1CCN(CC(C)(O)c2cccc(C(F)(F)F)c2)CC1` (stereo not drawn): the cytotoxicity at 70.5 h was -10.9%. Take `CCc1n[nH]c(C2CN(C(=O)c3nc(C)ncc3Cl)CCO2)n1` (stereo not drawn): the cytotoxicity at 70.5 h was -7.75%. `c1ccc(-n2ncc(CN3CCCC3Cn3cccn3)n2)cc1` (stereo not drawn): the cytotoxicity at 70.5 h was -15.5%.

Consider `CC(C)CCC(=O)NC(C)c1nnc2n1CCCCC2` (stereo not drawn), for which the cytotoxicity at 70.5 h is -6.87%. For the compound `Cc1nc(CN(C)C2CCN(CCCOc3ccccc3)C2)no1` (stereo not drawn), the cytotoxicity at 70.5 h came out at 39.5%. Take `CS(=O)(=O)N1CCC(NC(=O)COc2ccc(Cl)c(Cl)c2)CC1`: the cytotoxicity at 70.5 h is -8.67%. The value for `CN1CCC/C1=N\S(=O)(=O)c1ccc(NC(=O)c2cccs2)cc1` was -2.28%; that for `Cc1cc(C)cc(OCC(=O)NC2CCN(S(C)(=O)=O)CC2)c1` was 23.8%. Regarding `Cc1cc(NC(=O)NCC(C)N2CCc3ccccc32)no1` (stereo not drawn), the cytotoxicity at 70.5 h was -5.5%. For `COc1c(CNC2CCc3cc(F)ccc32)c(C)nn1C` (stereo not drawn), the cytotoxicity at 70.5 h was -15.1%.
